Test results taken from PMC6804080, “Benzoxaboroles—Novel Autotaxin Inhibitors” (Molecules, 2019).
Values after ≈ are worked out from the molar mass of the structure shown. Like-named read-outs stand apart in the source and are kept apart here.

Key:
[1] = tested on: ATX; details: read-out: reported activity in in vitro LPC choline release assay; cited from earlier work
[2] = tested on: LPA plasma levels; details: cited from earlier work
[3] = tested on: A2058 human melanoma cells; details: dose-dependent manner; cited from earlier work
[4] = cited from earlier work
[5] = in vitro plasma stability, rat plasma; type: in vitro ADME; details: after 4 h
Description: (§1) The in vitro plasma stability of the test compounds was studied in human and rat plasma with propranolol, benflorex, and eucatropine as control substances. All compounds at final concentrations of 5 μM (0.5% DMSO) were incubated in a phosphate buffer (50 mM, pH 7.4) for 4 h at 37 °C together with plasma. Aliquots were taken at different time points (0, 30, 120 min and 4 h), followed by reaction termination by the addition of CH3CN:CH3OH 2:1 v/v., which contained diclofenac and warfarin as internal standards (IS). Samples were then centrifuged (at 1600 rpm at 4 °C for 30 min), and the resulting supernatants were subjected to LC/MS/MS analysis. Results are expressed as % remaining.

[6] = in vitro plasma stability, human plasma; type: in vitro ADME; details: after 4 h
Description: as §1

[7] = metabolic stability in rat liver microsomes; type: in vitro ADME
Description: (§2) Metabolic stability was assessed in rat and human liver microsomes, with testosterone and propranolol as positive controls. All compounds, at a final concentration of 1 μM (0.03% DMSO), were incubated in a phosphate buffer (50 mM, pH 7.4) for 60 min at 37 °C, together with liver microsomes in the absence and presence of NADPH generating system (nicotinamide adenine dinucleotide phosphate (NADP, 2 mM), glucose-6-phosphate (20 mM), glucose-6-phosphate dehydrogenase (6U) and magnesium chloride (2 mM)). Aliquots were taken at different time points (0, 10, 20, 30, 45 and 60 min), followed by reaction termination by addition of CH3CN:CH3OH 2:1 v/v, containing diclofenac as internal standard (IS). Samples were then centrifuged (at 2000 rpm at 4 °C for 30 min), and resulting supernatants were subjected to LC/MS/MS analysis. The in vitro half-life was calculated in GraphPadPrism software from % remaining vs. time regression using non-linear regression fit. In vitro intrinsic clearance, expressed as mL/min/g liver, was determined from in vitro half-life and normalized for the protein concentration in the incubation mixture, assuming a 52.5 mg/g liver.

[8] = metabolic stability in human liver microsomes; type: in vitro ADME
Description: as §2

[9] = plasma protein binding, equilibrium dialysis, rat plasma; type: in vitro ADME; details: pH 7.4, rat plasma
Description: (§3) Plasma protein binding was measured using the equilibrium dialysis technique. Positive controls included in this assay were: Acebutolol (low binding) and nicardipine (very high binding). The assay was performed in a 96-well Teflon dialysis unit, where each well consisted of two chambers separated by a dialysis membrane. Plasma (human and rat, commercially obtained from Seralab) spiked with each compound (final concentration: 5 µM, 0.5% DMSO) were added to one chamber, and a blank buffer solution (60 mM Na2HPO4/14 mM KH2PO4/70 mM NaCl; pH 7.4) was added to the other side of the well. Each compound was analyzed in duplicate, for 4 h at 37 °C. After 4 h, both the plasma (free and bound fraction) and buffer (only free fraction) side of the well were sampled, matrix matched, then precipitated with a STOP solution (CH3CN:CH3OH 2:1 v/v, containing diclofenac as internal standard), and centrifuged at 2000 rpm for 30 min (+4 °C). The resulting supernatants were analyzed by LC-MS/MS. The fraction bound was calculated as the concentration difference (analyte vs. internal standard peak area ratio) in the plasma and buffer sides divided by the total concentration in the plasma side. Sampling was also performed from spiked plasma at t = 0 min in order to determine recovery, i.e., % of compound detected at t = 4 h in both the plasma and buffer chambers divided by the compound detected at t = 0 min.

[10] = plasma protein binding, equilibrium dialysis, human plasma; type: in vitro ADME; details: pH 7.4, read-out: PPB: fraction bound, human (converted)
Description: as §3

[11] = design: method as in PMID 23688339; details: cited from earlier work
[12] = tested on: ATX; design: method as in PMID 23688339; details: read-out: IC50 (inhibitory properties); cited from earlier work
[13] = tested on: glioblastoma cell lines; design: method as in PMID 30462853; details: cited from earlier work
[14] = tested on: glioma tumor; design: method as in PMID 30462853; details: in vivo; cited from earlier work
[15] = molecular target: T1, Autotaxin (ATX) (Homo sapiens, UniProt Q13822); test: biochemical choline detection assay for ATX inhibition, LysoPC substrate
T1 construct: we added 10 μL of recombinant ATX (2 ng/mL) in a Tris–HCl buffer
Description: All 21 new benzoxaboroles derivatives prepared herein were evaluated for ATX inhibition in vitro using a biochemical choline detection assay, combining elements of assays already described in the literature.
[…] Mother plates with serial dilutions of compounds in pure DMSO were prepared from 10 mM DMSO stock solutions. Storplate-384-deep-well-V plates (Perkin Elmer) were also used for mother plate preparation. Compounds were diluted in a DMSO in a ratio of 1:3. An aliquot of 200 nL of compound solution was transferred from the mother plate to the test plate with a Mosquito nanoliter liquid handling system (TTP labtech). The assay was performed in Spectra-Plate-384 TC, transparent, (Perkin Elmer, Cat#6007658) using a 20 µL assay volume. The total final percentage of DMSO in the test media was 1%. Compounds were tested at 11 consecutive three-fold dilutions starting from 50 µM (final concentrations) in duplicate, covering range of 0.0008–50 μM to determine IC50 values. […] After dispensing of compounds directly to the dry plate, we added 10 μL of recombinant ATX (2 ng/mL) in a Tris–HCl buffer (140 mM NaCl, 1mM MgCl2, 5 mM KCl, 3 mM CaCl2, 1 mg/ml bovin serum albumin (BSA, fatty acid free) and 100 mM Tris–HCl, pH 9). […] The above-described solution with dimethyl sulfoxide but without the test compound was used as a control. LysoPC without ATX was used as a control for the autohydrolysis of LysoPC. After 1.5 h of incubation, 20 μL of stop solution and developer was added {Choline oxidase (1.2 U/mL), Peroxidase (1.2 U/mL), TOOS (2.7 mM), 4-Aminoantipyrine (2.7 mM), and EDTA (50 mM)} to the reaction mixture, and absorbance was measured after 30 min of incubation. The absorbance was measured by using Perkin-Elmer EnVision plate reader (λ = 555 nm). Data were analyzed using GraphPad Prism software. The calculation of IC50 data, curves and quality control (QC) analysis was made by using Excel tools and GraphPadPrism software. Briefly, individual concentration–effect curves were generated by plotting the logarithm of the tested concentration of tested compounds (X) vs. corresponding percentage inhibition values (Y) using a least squares (ordinary) fit. […] QC criteria parameters (Z,’ S:B, ΔmP) were checked for every plate.

[16] = Chrom logD determination by gradient HPLC (CHI); type: physicochemical; details: reversed-phase HPLC, Phenomenex Luna C18 column; pH 7.4, Luna C18 column
Description: clogP values were calculated for all compounds using the Percepta software. Chrom logD was determined experimentally using a procedure described in the supplementary data. Furthermore, the correlation between calculated clogP values and experimentally determined Chrom log D values were explored for molecules containing boron functional groups such as boronic acids and benzoxaboroles.
Chrom logD values were determined from the following equation: Chrom logD = 0.0857 × CHI − 2 [39]. Chromatographic hydrophobic index (CHI) values were determined from the gradient retention times (RT). These values approximately corresponded to the volume percentage of organic component in the mobile phase when the compound elutes. CHI values were determined at pH 7.4. Chromatograms were obtained using on Agilent 1100 Series liquid chromatography system with an HPLC diode-array detector (DAD) coupled with a Micromass Quattro micro atmosphere pressure ionization (API) mass spectrometer. The column used for analyses was Phenomenex Luna C18 (50 × 3 mm, 5 µm, 100 Å). The column was maintained at 25 °C. The flow rate was 1.0 mL/min. The mobile phase was composed of 50 mM ammonium acetate in water at pH 7.4 (solvent A) and acetonitrile (solvent B). The solvent gradient condition was initially 0.5% B, and then it increased linearly to 100% B over 3.0 min, remaining at 100% B for 0.5 min, then decreasing linearly to 0% B over 0.2 min followed by an equilibration period of 1.3 min prior to the next injection. The total experimental duration was 5 min. Injection volume was 2.0 µl. Samples temperature was maintained at 15 °C in the autosampler chamber. A group of ten standard compounds having different CHI values was used for calibration of RP-HPLC [40].

[17] = kinetic solubility, turbidimetric method; type: physicochemical; details: 37 °C, pH 7.4, aqueous buffer, kinetic from dmso stock, Solubility (kinetic solubility range)
Description: Turbidimetric solubility allows for a rapid determination of kinetic solubility by using small amounts of the test compound. Assay controls were α-naphtoflavone (low solubility) and sulfaphenazole (expected solubility >100µM). DMSO stock solutions (10 mM) of each compound were first serially diluted 1 in 3 in DMSO and then spiked into an aqueous buffer (100 mM PBS), resulting in 5 following final concentration: 100, 30, 10, 3 and 1 µM (each concentration was tested in duplicate). […] Compound samples were compared to a solvent control in an aqueous buffer (DMSO 1% final concentration), and a significant increase of sample absorbance was considered to have occurred when the absorbance reached a 3-fold standard deviation of the average DMSO absorbance. The calculation of solubility range data was made by Excel tool software. Results are expressed as an estimated solubility range.

[18] = mice, intravenous administration 1 nmol/g
[19] = read-out: PPB: fraction bound, rat (converted)

| SMILES | LPA in the in vivo study [2] | half-life in vivo [4] | PS (plasma stability), rat [5] | PS (plasma stability), human [6] | LMS: predicted in vivo hepatic clearance, rat [7] | LMS: predicted in vivo hepatic clearance, human [8] | fraction unbound at 4 h, 5 µM [9, 19] | fraction unbound at 4 h, 5 µM [10] | other results |
| --- | --- | --- | --- | --- | --- | --- | --- | --- | --- |
| O=C1S/C(=C\c2ccc(OCc3cccc(B(O)O)c3)cc2)C(=O)N1Cc1ccc(F)cc1 [HA130] | lowering LPA significantly | less than five | – | – | – | – | – | – | IC50 [1]: 28 nM; LPA levels in the plasma [2, 18]: rapid decrease of LPA levels; toxicity [2, 18]: no overt toxicity issues observed; ATX-mediated migration of A2058 human melanoma cells [3]: inhibited |
| O=C1S/C(=C\c2ccc(OCc3ccc(B(O)O)cc3)cc2)C(=O)N1Cc1ccc(F)cc1 [HA155, reference compound] | lowering LPA significantly | less than five | 65.7 %remaining | 42.9 %remaining | < 30 %LBF | 54 %LBF | 0.001 | < 0.001 | fraction unbound at 4 h, 5 µM ([9]; read-out: fraction unbound, rat plasma): 0.004; Solubility, value taken from literature [11]: 6.8 µM (≈ 3.15 µg/mL) |
| O=C1N=C(N2CCN(Cc3cccc(B(O)O)c3)CC2)SC1=Cc1ccc(Cl)c(Cl)c1 [Compound 3BoA] | – | – | – | – | – | – | – | – | IC50 [12]: 13 nM; LPA plasma levels ([2]; mice, 4 mg/kg i.v. injection): significantly decreases LPA plasma levels (almost to zero); plasma LPA levels ([2]; mice, 4 mg/kg intravenous administration): decreases rapidly plasma LPA levels |
| O=C(CCN1CCN(C(=O)OCc2cc(Cl)cc(Cl)c2)CC1)c1ccc2[nH]c(=O)oc2c1 [PF-8380] | – | – | – | – | – | – | – | – | anti-invasive effect [13]: significant anti-invasive effect; glioma tumor growth progression [14]: delaying simultaneously glioma tumor growth progression |
| O=C(OCc1cc(Cl)cc(Cl)c1)N1CCN(C2CCN(C(=O)c3ccc4c(c3)B(O)OC4)C2)CC1 (stereo not shown) [Compound 30, (3,5-dichlorophenyl)methyl 4-[1-(1-hydroxy-3H-2,1-benzoxaborole-6-carbonyl)pyrrolidin-3-yl]piperazine-1-carboxylate] | – | – | 64.5 %remaining | 66.5 %remaining | 86 %LBF | 82 %LBF | 0.012 | 0.016 | IC50 ([15]; choline release assay using as a substrate, mean standard deviation from duplicate experiments): 180 ± 40 nM; ATX inhibition, range of activity ([15]; in words): nanomolar range; chromatographic logD [16]: 4.52; solubility kinetic at 1 h [17]: > 100 µM |
